Test system: transiently ocular hypertensive New Zealand white rabbits
Test: Intraocular pressure (IOP) lowering activity in hypertonic saline-induced IOP increase in rabbits
Format: in vivo
Conditions: for Mean IOP changes vs vehicle and baseline, 60 min: 60 min after topical application, hypertonic saline 5% intravitreal; for Mean IOP changes vs vehicle and baseline, 60 min / IOP60 min reduction vs vehicle / Mean IOP changes vs vehicle and baseline, 120 min / Mean IOP changes vs vehicle and baseline, 240 min / Maximal IOP reduc. / Mean IOP changes vs vehicle and baseline, 90 min / Mean IOP changes vs vehicle and baseline, 180 min / Mean IOP changes vs vehicle and baseline, 300 min: dose (%); for IOP60 min reduction vs vehicle / Delta60 min vs parent drug: 60 minutes after topical administration; for Delta60 min vs parent drug: parent drug bimatoprost (A-1, B-1) or fluprostenol isopropyl ester (Comp. 9-13); for Mean IOP changes vs vehicle and baseline, 120 min: 120 min after topical application; for Mean IOP changes vs vehicle and baseline, 120 min / Mean IOP changes vs vehicle and baseline, 240 min: treatment group A (Tono-Pen VET); for Mean IOP changes vs vehicle and baseline, 240 min: 240 min after topical application; for Maximal IOP reduc.: topical application; for Mean IOP changes vs vehicle and baseline, 90 min: 90 min after topical application; for Mean IOP changes vs vehicle and baseline, 90 min / Mean IOP changes vs vehicle and baseline, 180 min / Mean IOP changes vs vehicle and baseline, 300 min: treatment group B (pneumatonometer); for Mean IOP changes vs vehicle and baseline, 180 min: 180 min after topical application; for Mean IOP changes vs vehicle and baseline, 300 min: 300 min after topical application
Description: Intraocular Pressure (IOP) Lowering Activity in Hypertonic Saline-Induced IOP Increase in Rabbits
Compounds (9), (10), (11), (12) and (13) of the invention and compounds (A-1) and (B-1) disclosed in WO 2009/136281 were directly compared with fluprostenol isopropyl ester and bimatoprost, in the same model of ocular hypertensive rabbit. The hypotensive effects of the two groups of compounds were independently evaluated at different time points and in different sets of hypertensive rabbits.
Test compounds and dose (equimolar to the correspondent parent drug)
Vehicle: buffered aqueous solution pH 6, polyoxyl 40 hydrogenated castor oil 5 mg/ml, tromethamine 10 mg/ml, boric acid 6 mg/ml, mannitol 40 mg/ml, edetate disodium 0.5 mg/ml and benzalkonium chloride 0.15 mg/mL
Male New Zealand white rabbits weighing 2.0-2.5 kg were used in the experiments. The transient increase in IOP was induced by the injection of 0.1 ml of hypertonic saline solution (5%) into the vitreous of both eyes.
(§1) Intraocular pressure (IOP) was determined using a Tono-Pen VET prior to hypertonic saline injection (basal) and at 30, 60, 120 and 240 min thereafter. Vehicle or tested compound dissolved in the vehicle was instilled immediately after the injection of hypertonic saline into the conjunctival pocket. Eyes were randomly assigned to different treatment groups.
One drop of 0.4% oxybuprocaine hydrochloride (Novesine, Sandoz) was instilled in each eye immediately before each set of pressure measurements.
Treatment Groups B (Prior Art Compounds)
Vehicle: tween 80 0.5%, 0.2 mg/ml benzalkonium chloride, 0.3% DMSO in PBS pH 6.7
as §1, with “pneumatonometer” for “Tono-Pen VET”, “90, 180” for “120”, “300” for “240”
The intraocular pressure values measured following topical application of the tested compounds are reported in Table 1 expressed as mean IOP change in treated eyes versus vehicle-treated eyes at same time point and baseline; Table 1 also reports the maximal IOP reduction of the tested compounds expressed in percentage.

Row | SMILES | Mean IOP changes vs vehicle and baseline, 60 min | IOP60 min reduction vs vehicle | Delta60 min vs parent drug | Mean IOP changes vs vehicle and baseline, 120 min | Mean IOP changes vs vehicle and baseline, 240 min | Maximal IOP reduc. | Mean IOP changes vs vehicle and baseline, 90 min | Mean IOP changes vs vehicle and baseline, 180 min | Mean IOP changes vs vehicle and baseline, 300 min
1 | CC(C)OC(=O)CCC/C=C\C[C@@H]1[C@@H](/C=C/[C@H](COc2cccc(C(F)(F)F)c2)OC(=O)CCCC(CO[N+](=O)[O-])O[N+](=O)[O-])[C@H](O)C[C@@H]1O (stereo partly drawn) [Comp. (10), (Z)-isopropyl 7-((1R,2R,3R,5S)-2-((3R,E)-3-(5,6-bis(nitrooxy)hexanoyloxy)-4-(3-(trifluoromethyl)phenoxy)but-1-enyl)-3,5-dihydroxycyclopentyl)hept-5-enoate] | −9.2 ± 1.0 mmHg | 28% | −9.1 mmHg | −8.8 ± 1.2 mmHg | −1.2 ± 0.8 mmHg | 26 ± 3% | – | – | –
2 | CC(C)OC(=O)CCC/C=C\C[C@@H]1[C@@H](/C=C/[C@H](COc2cccc(C(F)(F)F)c2)OC(=O)CCCCCO[N+](=O)[O-])[C@H](O)C[C@@H]1O [Comp. (9)] | −6.6 ± 0.9 mmHg | 20% | −6.5 mmHg | −8.2 ± 1.2 mmHg | −2.0 ± 0.7 mmHg | 23 ± 3% | – | – | –
3 | CC(C)OC(=O)CCC/C=C\C[C@@H]1[C@@H](/C=C/[C@@H](O)COc2cccc(C(F)(F)F)c2)[C@H](O)C[C@@H]1O [Fluprostenol isopropyl ester, reference compound] | −0.08 ± 1.2 mmHg | 3% | 0 mmHg | −2.0 ± 1.3 mmHg | −0.4 ± 0.9 mmHg | – | – | – | –
4 | CC(C)OC(=O)CCC/C=C\C[C@@H]1[C@@H](/C=C/[C@H](COc2cccc(C(F)(F)F)c2)OC(=O)CCOCC(CO[N+](=O)[O-])O[N+](=O)[O-])[C@H](O)C[C@@H]1O (stereo partly drawn) [Comp. (12), (Z)-isopropyl 7-((1R,2R,3R,5S)-2-((3R,E)-3-(3-(2,3-bis(nitrooxy)propoxy)propanoyloxy)-4-(3-(trifluoromethyl)phenoxy)but-1-enyl)-3,5 dihydroxycyclopentyl)hept-5-enoate] | −7.1 ± 0.8 mmHg | 22% | −7.0 mmHg | −9.6 ± 1.0 mmHg | −2.9 ± 0.5 mmHg | 38 ± 3% | – | – | –
5 | CCNC(=O)CCC/C=C\C[C@@H]1[C@@H](/C=C/[C@H](CCc2ccccc2)OC(=O)CCCCCO[N+](=O)[O-])[C@H](O)C[C@@H]1O [Compound B-1, (1S,2E)-3-{(1R,2R,3S,5R)-2-[(2Z)-7-(Ethylamino)-7-oxohept-2-en-1-yl]-3,5-dihydroxycyclopentyl}-1-(2-phenylethyl)prop-2-en-1-yl 6-(nitrooxy) hexanoate, reference compound] | −3.9 ± 2.5 mmHg | 7% | −2.1 mmHg | – | – | 10 ± 3% | −5.6 ± 2.8 mmHg | 5.3 ± 1.5 mmHg | −3.9 ± 1.9 mmHg
6 | CCNC(=O)CCC/C=C\C[C@@H]1[C@@H](/C=C/[C@@H](O)CCc2ccccc2)[C@H](O)C[C@@H]1O [Bimatoprost, reference compound] | −1.8 ± 2.4 mmHg | 1% | 0 mmHg | – | – | – | −2.7 ± 2.0 mmHg | 0.8 ± 1.5 mmHg | 0.3 ± 2.6 mmHg
7 | CCNC(=O)CCC/C=C\C[C@@H]1[C@@H](/C=C/[C@H](CCc2ccccc2)OC(=O)CCCO[N+](=O)[O-])[C@H](O)C[C@@H]1O [Compound A-1, (1S,2E)-3-{(1R,2R,3 S,5R)-2-[(2Z)-7-(Ethylamino)-7-oxohept-2-en-1-yl]-3,5-dihydroxycyclopentyl}-1-(2-phenylethyl)prop-2-en-1-yl 4-(nitrooxy) butanoate, reference compound] | −0.06 ± 5.2 mmHg | 4% | Not effective | – | – | 3 ± 9% | 0.03 ± 5.0 mmHg | 1.1 ± 2.8 mmHg | −1.9 ± 3.2 mmHg
8 | O=C(O)CCC/C=C\C[C@@H]1[C@@H](/C=C/[C@H](COc2cccc(C(F)(F)F)c2)OC(=O)CCCC(CO[N+](=O)[O-])O[N+](=O)[O-])[C@H](O)C[C@@H]1O (stereo partly drawn) [Comp. (13), (Z)-7-((1R,2R,3R,5S)-2-((R,E)-3-(5,6-bis(nitrooxy)hexanoyloxy)-4-(3-(trifluoromethyl)phenoxy)but-1-enyl)-3,5-dihydroxycyclopentyl)hept-5-enoic acid] | −8.6 ± 1.2 mmHg | 31% | −8.5 mmHg | −6.9 ± 0.9 mmHg | −0.3 ± 1.0 mmHg | 39 ± 3% | – | – | –
9 | CC(C)OC(=O)CCC/C=C\C[C@@H]1[C@@H](/C=C/[C@H](COc2cccc(C(F)(F)F)c2)OC(=O)COCCO[N+](=O)[O-])[C@H](O)C[C@@H]1O [Comp. (11), (Z)-isopropyl 7-((1R,2R,3R,5S)-3,5-dihydroxy-2-((R,E)-3-(2-(2-nitrooxyethoxy)acetoxy)-4-(3-(trifluoromethyl)phenoxy)but-1-enyl)cyclopentyl)hept-5-enoate] | −9.7 ± 0.8 mmHg | 32% | −9.6 mmHg | −7.4 ± 0.9 mmHg | −3.2 ± 0.6 mmHg | 37 ± 4% | – | – | –

Reference: patent publication US10280138B2, “Nitric oxide donating derivatives of fluprostenol” (NICOX S.A., priority 2015, dated 2019)
